Patent publication US20250145587A1, “BROMODOMAIN INHIBITORS” (AbbVie Inc., priority 2016, published 2025)

Molecular target: BRD4 (BDI_K57-E168) (Homo sapiens, UniProt O60885)
Test: TR-FRET bromodomain binding assay, BRD4 first bromodomain (BDI)
Protocol: A time-resolved fluorescence resonance energy transfer (TR-FRET) assay was used to determine the affinities of compounds of the Examples listed in Table 1 for each bromodomain of BRD4. […] An Alexa647-labeled BET-inhibitor was used as the fluorescent probe in the assay.
(§1) Compound dilution series were prepared in DMSO via an approximately 3-fold serial dilution. Compound dilutions were added directly into white, low-volume assay plates (Perkin Elmer Proxiplate 384 Plus #6008280) using a Labcyte Echo in conjunction with Labcyte Access and Thermo Multidrop CombinL robotics. Compounds were then suspended in eight microliters (μL) of assay buffer (20 mM Sodium Phosphate, pH 6.0, 50 mM NaCl, 1 mM Ethylenediaminetetraacetic acid disodium salt dihydrate, 0.01% Triton X-100, 1 mM DL-Dithiothreitol) containing His-tagged bromodomain, Europium-conjugated anti-His antibody (Invitrogen PV5596) and Alexa-647-conjugated probe.
After a one-hour equilibration at room temperature, TR-FRET ratios were determined using an Envision multilabel plate reader (Ex 340, Em 495/520).
TR-FRET data were normalized to the means of 24 no-compound controls (“high”) and 8 controls containing 1 μM un-labeled probe (“low”). Percent inhibition was plotted as a function of compound concentration and the data were fit with the 4 parameter logistic equation to obtain IC50s. Inhibition constants (Ki) were calculated from the IC50s, probe Kd and probe concentration.
Compound dilution series for Compounds A-E were prepared in DMSO via an approximately 3-fold serial dilution from 0.47 mM to 7.8 nM.
as §1, with “Compound” for “Compound dilution series were prepared in DMSO via an approximately 3-fold serial dilution. Compound”
The final concentration of 1× assay mixture contained 2% DMSO, 8 nM His-tagged bromodomain, 1 nM Europium-conjugated anti-His-tag antibody and 100 nM or 30 nM probe (for BDI or BDII, respectively) and compound concentration in the range of […]-150 μM.
TR-FRET data were normalized to the means of 24 no-compound controls (“high”) and 8 controls containing 1 μM un-labeled probe (“low”). Percent inhibition was plotted as a function of compound concentration and the data were fit with the 4 parameter logistic equation to obtain IC50s. Inhibition constants (Ki) were calculated from the IC50s, probe Kd and probe concentration. Typical Z′ values were between 0.65 and 0.75. The minimum significant ratio was determined to evaluate assay reproducibility (Eastwood et al., (2006) J Biomol Screen, 11: 253-261). The MSR was determined to be 2.03 for BDI and 1.93 for BDII, and a moving MSR (last six run MSR overtime) for both BDI and BDII was typically <3.

| Ki | Structure (SMILES) |
| --- | --- |
| 1160 nM | CCS(=O)(=O)c1ccc(Oc2c(C)cccc2C)c(-c2cn(C)c(=O)cc2O[C@H]2CC[C@H](NC(C)=O)CC2)c1 [Example 1, N-[trans-4-({5-[2-(2,6-dimethylphenoxy)-5-(ethanesulfonyl)phenyl]-1-methyl-2-oxo-1,2-dihydropyridin-4-yl}oxy)cyclohexyl]acetamide] |
| 2800 nM | CCS(=O)(=O)c1ccc(Oc2c(C)cccc2C)c(-c2cn(C)c(=O)cc2O[C@H]2CC[C@@H](NC(C)=O)CC2)c1 [Example 2, N-[cis-4-({5-[2-(2,6-dimethylphenoxy)-5-(ethanesulfonyl)phenyl]-1-methyl-2-oxo-1,2-dihydropyridin-4-yl}oxy)cyclohexyl]acetamide] |
| 1050 nM | CCS(=O)(=O)c1ccc(Oc2c(C)cccc2C)c(-c2cn(C)c(=O)cc2O[C@H]2CC[C@H](NC(=O)OC)CC2)c1 [Example 3, methyl [trans-4-({5-[2-(2,6-dimethylphenoxy)-5-(ethanesulfonyl)phenyl]-1-methyl-2-oxo-1,2-dihydropyridin-4-yl}oxy)cyclohexyl]carbamate] |
| 1050 nM | CCS(=O)(=O)c1ccc(Oc2c(C)cccc2C)c(-c2cn(C)c(=O)cc2O[C@H]2CC[C@H](NS(C)(=O)=O)CC2)c1 [Example 4, N-[trans-4-({5-[2-(2,6-dimethylphenoxy)-5-(ethanesulfonyl)phenyl]-1-methyl-2-oxo-1,2-dihydropyridin-4-yl}oxy)cyclohexyl]methanesulfonamide] |
| 1280 nM | CCS(=O)(=O)c1ccc(Oc2c(C)cccc2C)c(-c2cn(C)c(=O)cc2O[C@H]2CC[C@H](NC(=O)OC(C)(C)C)CC2)c1 [Example 5, tert-butyl [trans-4-({5-[2-(2,6-dimethylphenoxy)-5-(ethanesulfonyl)phenyl]-1-methyl-2-oxo-1,2-dihydropyridin-4-yl}oxy)cyclohexyl]carbamate] |
| 823 nM | CCS(=O)(=O)c1ccc(Oc2c(C)cccc2C)c(-c2cn(C)c(=O)cc2O[C@H]2CC[C@H](NC(=O)C(F)(F)F)CC2)c1 [Example 6, N-[trans-4-({5-[2-(2,6-dimethylphenoxy)-5-(ethanesulfonyl)phenyl]-1-methyl-2-oxo-1,2-dihydropyridin-4-yl}oxy)cyclohexyl]-2,2,2-trifluoroacetamide] |
| 489 nM | CCC(=O)N[C@H]1CC[C@H](Oc2cc(=O)n(C)cc2-c2cc(S(=O)(=O)CC)ccc2Oc2c(C)cccc2C)CC1 [Example 7, N-[trans-4-({5-[2-(2,6-dimethylphenoxy)-5-(ethanesulfonyl)phenyl]-1-methyl-2-oxo-1,2-dihydropyridin-4-yl}oxy)cyclohexyl]propanamide] |
| 627 nM | CCS(=O)(=O)c1ccc(Oc2c(C)cccc2C)c(-c2cn(C)c(=O)cc2O[C@H]2CC[C@H](NC(=O)C(C)(C)C)CC2)c1 [Example 8, N-[trans-4-({5-[2-(2,6-dimethylphenoxy)-5-(ethanesulfonyl)phenyl]-1-methyl-2-oxo-1,2-dihydropyridin-4-yl}oxy)cyclohexyl]-2,2-dimethylpropanamide] |
| 474 nM | CCS(=O)(=O)c1ccc(Oc2c(C)cccc2C)c(-c2cn(C)c(=O)cc2O[C@H]2CC[C@H](NC(=O)COC)CC2)c1 [Example 9, N-[trans-4-({5-[2-(2,6-dimethylphenoxy)-5-(ethanesulfonyl)phenyl]-1-methyl-2-oxo-1,2-dihydropyridin-4-yl}oxy)cyclohexyl]-2-methoxyacetamide] |
| 524 nM | CCS(=O)(=O)c1ccc(Oc2c(C)cccc2C)c(-c2cn(C)c(=O)cc2O[C@H]2CC[C@H](NC(=O)C3(C)CC3)CC2)c1 [Example 10, N-[trans-4-({5-[2-(2,6-dimethylphenoxy)-5-(ethanesulfonyl)phenyl]-1-methyl-2-oxo-1,2-dihydropyridin-4-yl}oxy)cyclohexyl]-1-methylcyclopropane-1-carboxamide] |
| 773 nM | CCS(=O)(=O)c1ccc(Oc2c(C)cccc2C)c(-c2cn(C)c(=O)cc2O[C@H]2CC[C@H](NC(=O)C3CC3)CC2)c1 [Example 11, N-[trans-4-({5-[2-(2,6-dimethylphenoxy)-5-(ethanesulfonyl)phenyl]-1-methyl-2-oxo-1,2-dihydropyridin-4-yl}oxy)cyclohexyl]cyclopropanecarboxamide] |
| 301 nM | CCS(=O)(=O)c1ccc(Oc2c(C)cccc2C)c(-c2cn(C)c(=O)cc2O[C@H]2CC[C@H](NC(=O)C3(C)COC3)CC2)c1 [Example 12, N-[trans-4-({5-[2-(2,6-dimethylphenoxy)-5-(ethanesulfonyl)phenyl]-1-methyl-2-oxo-1,2-dihydropyridin-4-yl}oxy)cyclohexyl]-3-methyloxetane-3-carboxamide] |
| 462 nM | CCS(=O)(=O)c1ccc(Oc2c(C)cccc2C)c(-c2cn(C)c(=O)cc2O[C@H]2CC[C@H](NC(=O)C3CC(F)(F)C3)CC2)c1 [Example 13, N-[trans-4-({5-[2-(2,6-dimethylphenoxy)-5-(ethanesulfonyl)phenyl]-1-methyl-2-oxo-1,2-dihydropyridin-4-yl}oxy)cyclohexyl]-3,3-difluorocyclobutane-1-carboxamide] |
| 95.3 nM | CCS(=O)(=O)Nc1ccc(Oc2c(C)cc(C(C)(C)O)cc2C)c(-c2cn(C)c(=O)cc2O[C@H]2CC[C@H](NC(C)=O)CC2)c1 [Example 14, N-{trans-4-[(5-{5-[(ethanesulfonyl)amino]-2-[4-(2-hydroxypropan-2-yl)-2,6-dimethylphenoxy]phenyl}-1-methyl-2-oxo-1,2-dihydropyridin-4-yl)oxy]cyclohexyl}acetamide] |
| 102 nM | CCS(=O)(=O)Nc1ccc(Oc2c(C)cc(C(C)(C)O)cc2C)c(-c2cn(C)c(=O)cc2O[C@H]2CC[C@H](NC(=O)OC)CC2)c1 [Example 15, methyl {trans-4-[(5-{5-[(ethanesulfonyl)amino]-2-[4-(2-hydroxypropan-2-yl)-2,6-dimethylphenoxy]phenyl}-1-methyl-2-oxo-1,2-dihydropyridin-4-yl)oxy]cyclohexyl}carbamate] |
| 313 nM | CCS(=O)(=O)Nc1ccc(Oc2c(C)cc(F)cc2C)c(-c2cn(C)c(=O)cc2O[C@H]2CC[C@H](NC(=O)OC)CC2)c1 [Example 16, methyl {trans-4-[(5-{5-[(ethanesulfonyl)amino]-2-(4-fluoro-2,6-dimethylphenoxy)phenyl}-1-methyl-2-oxo-1,2-dihydropyridin-4-yl)oxy]cyclohexyl}carbamate] |
| 419 nM | CCS(=O)(=O)Nc1cnc(Oc2c(C)cc(F)cc2C)c(-c2cn(C)c(=O)cc2O[C@H]2CC[C@H](NC(=O)OC)CC2)c1 [Example 17, methyl [trans-4-({5′-[(ethanesulfonyl)amino]-2′-(4-fluoro-2,6-dimethylphenoxy)-1-methyl-6-oxo[1,6-dihydro[3,3′-bipyridine]]-4-yl}oxy)cyclohexyl]carbamate] |
| 903 nM | COC(=O)N[C@H]1CC[C@H](Oc2cc(=O)n(C)cc2-c2cc(CS(C)(=O)=O)ccc2Oc2c(C)cc(F)cc2C)CC1 [Example 18, methyl {trans-4-[(5-{2-(4-fluoro-2,6-dimethylphenoxy)-5-[(methanesulfonyl)methyl]phenyl}-1-methyl-2-oxo-1,2-dihydropyridin-4-yl)oxy]cyclohexyl}carbamate] |
| 615 nM | CCS(=O)(=O)c1ccc(Oc2c(C)cc(F)cc2C)c(-c2cn(C)c(=O)cc2O[C@H]2CC[C@H](N3CCCC3=O)CC2)c1 [Example 19, 5-[5-(ethanesulfonyl)-2-(4-fluoro-2,6-dimethylphenoxy)phenyl]-1-methyl-4-{[trans-4-(2-oxopyrrolidin-1-yl)cyclohexyl]oxy}pyridin-2(1H)-one] |
| 461 nM | CCS(=O)(=O)c1ccc(Oc2c(C)cc(F)cc2C)c(-c2cn(C)c(=O)cc2O[C@H]2CC[C@H](N(C)C(C)=O)CC2)c1 [Example 20, N-[trans-4-({5-[5-(ethanesulfonyl)-2-(4-fluoro-2,6-dimethylphenoxy)phenyl]-1-methyl-2-oxo-1,2-dihydropyridin-4-yl}oxy)cyclohexyl]-N-methylacetamide] |
